Results taken from patent US9926275B2 (priority 2013, dated 2018).
Like-named read-outs stand apart in the source and are kept apart here.

Experiments:
CB1 receptor [1] = target: T1, CB1 receptor (Homo sapiens, UniProt P21554); experiment: β-arrestin recruitment in CNR1 PathHunter cell line, allosteric modulation of CP55,940 response; format: cell-based
Method: (§1) For allosteric determination, cells were preincubated with compound followed by agonist challenge at the EC20 concentration of the agonist. 5 μL of 4× compound was added to cells and incubated at 37° C. for 30 minutes. 5 μL of 4× EC20 agonist was added to cells and incubated at 37° C. for 30 minutes.
(§2) Data Analysis: Dose curves were plotted using GraphPad Prism or Activity Base. The percentage activity is calculated using the following formula: % Activity=100%×(1−(mean RLU of test sample−mean RLU of MAX control)/(mean RLU of vehicle control [EC20 for PAM]−mean RLU of MAXcontrol).
(§3) Agonist (CP55,940) dose curves were performed for the CNR1 PathHunter and cAMP Hunter cell lines. […] The cAMP assay was performed in the presence of 20 μM forskolin (EC80).
(§4) In Vitro Evaluation: The in vitro evaluation of the covalent allosteric modulators was performed using as described previously.

CB1 receptor [2] = target: T1, CB1 receptor; experiment: DiscoveRx HitHunter cAMP XS+ assay in cAMP Hunter cell line, allosteric modulation of CP55,940 response; format: cell-based
Method: Once it was established that the cells were healthy and growing normally, cells were passaged from flasks using cell dissociation reagent buffer and seeded into white walled clear bottom 384-well microplates for compound profiling. For profiling, cells were seeded at a density of 10000 cells per well in a total volume of 20 μL and were allowed to adhere and recover overnight prior to compound addition. Cells were treated the following day using the protocols shown below. cAMP modulation was determined using the DiscoveRx HitHunter cAMP XS+ assay.
Media was aspirated from cells and replaced with 10 μL 1:1 HBSS/Hepes: cAMP XS+ Ab reagent. Agonist (CP55,940) dose curves were performed to determine the EC20 value for the testing with the compounds of the present technology. 5 μL of 4× agonist was added to each well with an equal concentration of vehicle present. EC20 agonist concentration was determined directly from agonist dose curve.
as §1
Signal Detection: After appropriate compound incubation, assay signal was generated through incubation with 20 μL cAMP XS+ED/CL lysis cocktail for one hour followed by incubation with 20 μL cAMP XS+EA reagent for three hours at room temperature. Microplates were read following signal generation with a PerkinElmer Envision™ instrument for chemiluminescent signal detection.
as §2, §3, §4

[3] = Table 1, CP55,940 as agonist, read-out: β-arrestin EC50
[4] = Table 1, preincubation with compound, then CP55,940 challenge, 20 μM forskolin
[5] = Table 1, preincubation with compound, then CP55,940 challenge, 20 μM forskolin, read-out: cAMP EC50

T1 sequence (P21554 whole entry): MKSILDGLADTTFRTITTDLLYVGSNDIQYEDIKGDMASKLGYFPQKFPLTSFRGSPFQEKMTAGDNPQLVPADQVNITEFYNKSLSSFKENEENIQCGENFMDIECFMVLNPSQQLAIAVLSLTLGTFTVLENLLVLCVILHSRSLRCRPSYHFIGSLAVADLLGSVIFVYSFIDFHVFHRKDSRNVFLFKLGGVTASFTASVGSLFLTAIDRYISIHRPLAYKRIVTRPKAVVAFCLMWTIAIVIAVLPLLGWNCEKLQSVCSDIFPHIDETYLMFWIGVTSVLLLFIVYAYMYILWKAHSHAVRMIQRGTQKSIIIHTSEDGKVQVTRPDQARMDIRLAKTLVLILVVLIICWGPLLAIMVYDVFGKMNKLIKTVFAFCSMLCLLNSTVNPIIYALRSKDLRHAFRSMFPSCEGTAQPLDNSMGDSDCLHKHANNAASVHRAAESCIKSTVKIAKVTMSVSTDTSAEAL

| SMILES | β-arrestin % inhibition (CB1 receptor [1]) [%] | cAMP % inhibition (CB1 receptor [2]) [%] | β-arrestin % inhibition (CB1 receptor [1]; Table 1, CP55,940 as agonist) [%] | EC50 (CB1 receptor [1]; [3]) [nM] | cAMP % inhibition (CB1 receptor [2]; [4]) [%] | EC50 (CB1 receptor [2]; [5]) [nM] | EC50 (CB1 receptor [1]; β-arrestin EC50 nM) [nM] | EC50 (CB1 receptor [2]; cAMP EC50 nM) [nM] | EC50 (CB1 receptor [2]; read-out: cAMP EC50) [nM] |
| --- | --- | --- | --- | --- | --- | --- | --- | --- | --- |
| O=C(Nc1ccc(Cl)cc1)Nc1cccc(-c2cccc(N3CCCC3)n2)c1 [Compound 10a, 1-(4-Chlorophenyl)-3-(3-(6-(pyrrolidin-1-yl)pyridin-2-yl)phenyl)urea] | 109 | 108 | – | – | – | – | – | – | – |
| O=C(Nc1ccc(I)cc1)Nc1cccc(-c2cccc(N3CCCC3)n2)c1 [Compound 10b, 1-(4-Iodophenyl)-3-(3-(6-(pyrrolidin-1-yl)pyridin-2-yl)phenyl)urea] | – | – | 133 | 27 | 126 | 223 | – | – | – |
| O=C(Nc1cccc(Cl)c1)Nc1cccc(-c2cccc(N3CCCC3)n2)c1 [Compound 10c, 1-(3-Chlorophenyl)-3-(3-(6-(pyrrolidin-1-yl)pyridin-2-yl)phenyl)urea] | – | – | 128 | 260 | 111 | 782 | – | – | – |
| O=C(Nc1cccc(-c2cccc(N3CCCC3)n2)c1)Nc1ccccc1Cl [Compound 10d, 1-(2-Chlorophenyl)-3-(3-(6-(pyrrolidin-1-yl)pyridin-2-yl)phenyl)urea] | – | – | 105 | 2170 | 39 | > 10000 | – | – | – |
| O=C(Nc1ccc(C(F)(F)F)cc1)Nc1cccc(-c2cccc(N3CCCC3)n2)c1 [Compound 10e, 1-(3-(6-(Pyrrolidin-1-yl)pyridin-2-yl)phenyl)-3-(4-(trifluoromethyl)phenyl)urea] | – | – | 128 | 51 | 161 | 218 | – | – | – |
| O=C(Nc1cccc(-c2cccc(N3CCCC3)n2)c1)Nc1cccc(C(F)(F)F)c1 [Compound 10f, 1-(3-(6-(Pyrrolidin-1-yl)pyridin-2-yl)phenyl)-3-(3-(trifluoromethyl)phenyl)urea] | – | – | 129 | 220 | 116 | 242 | – | – | – |
| O=C(Nc1cccc(-c2cccc(N3CCCC3)n2)c1)Nc1ccccc1C(F)(F)F [Compound 10g, 1-(3-(6-(Pyrrolidin-1-yl)pyridin-2-yl)phenyl)-3-(2-(trifluoromethyl)phenyl)urea] | – | – | 123 | 2090 | 119 | 1160 | – | – | – |
| COc1ccc(NC(=O)Nc2cccc(-c3cccc(N4CCCC4)n3)c2)cc1 [Compound 10h, 1-(4-Methoxyphenyl)-3-(3-(6-(pyrrolidin-1-yl)pyridin-2-yl)phenyl)urea] | – | – | 98 | 99 | 97 | 1230 | – | – | – |
| COc1cccc(NC(=O)Nc2cccc(-c3cccc(N4CCCC4)n3)c2)c1 [Compound 10i, 1-(3-Methoxyphenyl)-3-(3-(6-(pyrrolidin-1-yl)pyridin-2-yl)phenyl)urea] | – | – | 109 | 497 | 92 | 1790 | – | – | – |
| COc1ccccc1NC(=O)Nc1cccc(-c2cccc(N3CCCC3)n2)c1 [Compound 10j, 1-(2-Methoxyphenyl)-3-(3-(6-(pyrrolidin-1-yl)pyridin-2-yl)phenyl)urea] | – | – | 93 | 1230 | 0 | > 10000 | – | – | – |
| O=C(Nc1ccc(Oc2ccccc2)cc1)Nc1cccc(-c2cccc(N3CCCC3)n2)c1 [Compound 10k, 1-(4-Phenoxyphenyl)-3-(3-(6-(pyrrolidin-1-yl)pyridin-2-yl)phenyl)urea] | – | – | 123 | 115 | 91 | 750 | – | – | – |
| O=C(Nc1cccc(Oc2ccccc2)c1)Nc1cccc(-c2cccc(N3CCCC3)n2)c1 [Compound 10l, 1-(3-Phenoxyphenyl)-3-(3-(6-(pyrrolidin-1-yl)pyridin-2-yl)phenyl)urea] | – | – | 117 | 86 | 57 | 2240 | – | – | – |
| O=C(Nc1cccc(-c2cccc(N3CCCC3)n2)c1)Nc1ccccc1Oc1ccccc1 [Compound 10m, 1-(2-Phenoxyphenyl)-3-(3-(6-(pyrrolidin-1-yl)pyridin-2-yl)phenyl)urea] | – | – | 80 | 795 | 18 | > 10000 | – | – | – |
| Cc1ccc(NC(=O)Nc2cccc(-c3cccc(N4CCCC4)n3)c2)cc1 [Compound 10n, 1-(3-(6-(Pyrrolidin-1-yl)pyridin-2-yl)phenyl)-3-(p-tolyl)urea] | 127 | 122 | – | – | – | – | 119 | 764 | – |
| Cc1cccc(NC(=O)Nc2cccc(-c3cccc(N4CCCC4)n3)c2)c1 [Compound 10o, 1-(3-(6-(Pyrrolidin-1-yl)pyridin-2-yl)phenyl)-3-(m-tolyl)urea] | – | – | 125 | 734 | 65 | 483 | – | – | – |
| Cc1ccccc1NC(=O)Nc1cccc(-c2cccc(N3CCCC3)n2)c1 [Compound 10p, 1-(3-(6-(Pyrrolidin-1-yl)pyridin-2-yl)phenyl)-3-(o-tolyl)urea] | – | – | 104 | 361 | 97 | 1700 | – | – | – |
| O=C(Nc1ccccc1)Nc1cccc(-c2cccc(N3CCCC3)n2)c1 [Compound 10q, 1-Phenyl-3-(3-(6-(pyrrolidin-1-yl)pyridin-2-yl)phenyl)urea] | – | – | 135 | 110 | – | 501 | – | – | – |
| CCc1ccccc1NC(=O)Nc1cccc(-c2cccc(N3CCCC3)n2)c1 [Compound 10r, 1-(2-Ethylphenyl)-3-(3-(6-(pyrrolidin-1-yl)pyridin-2-yl)phenyl)urea] | – | – | 76 | 3320 | 42 | 1190 ± 120 | – | – | – |
| Cc1cc(Cl)ccc1NC(=O)Nc1cccc(-c2cccc(N3CCCC3)n2)c1 [Compound 10s, 1-(4-Chloro-2-methylphenyl)-3-(3-(6-(pyrrolidin-1-yl)pyridin-2-yl)phenyl)urea] | – | – | 109 | 209 | 18 | > 10000 | – | – | – |
| O=C(Nc1ccc(F)cc1)Nc1cccc(-c2cccc(N3CCCC3)n2)c1 [Compound 10t, 1-(4-Fluorophenyl)-3-(3-(6-(pyrrolidin-1-yl)pyridin-2-yl)phenyl)urea] | – | – | 108 | 7 | 119 | 148 | – | – | – |
| O=C(Nc1cccc(-c2cccc(N3CCCC3)n2)c1)Nc1ccccc1F [Compound 10u, 1-(2-Fluorophenyl)-3-(3-(6-(pyrrolidin-1-yl)pyridin-2-yl)phenyl)urea] | – | – | 107 | 99 | 79 | 330 | – | – | – |
| CC(C)c1ccccc1NC(=O)Nc1cccc(-c2cccc(N3CCCC3)n2)c1 [Compound 10v, 1-(2-Isopropylphenyl)-3-(3-(6-(pyrrolidin-1-yl)pyridin-2-yl)phenyl)urea] | 66 | 70 | – | – | – | – | 4200 | 4810 | – |
| O=C(Nc1cccc(-c2cccc(N3CCCC3)n2)c1)Nc1cccc2ccccc12 [Compound 10w, 1-(Naphthalen-1-yl)-3-(3-(6-(pyrrolidin-1-yl)pyridin-2-yl)phenyl)urea] | – | – | 109 | 1270 | 69 | 1260 ± 125 | – | – | – |
| O=C(Nc1cccc(-c2cccc(N3CCCC3)n2)c1)Nc1ccc2ccccc2c1 [Compound 10x, 1-(Naphthalen-2-yl)-3-(3-(6-(pyrrolidin-1-yl)pyridin-2-yl)phenyl)urea] | – | – | 119 | 1910 | 68 | 1830 | – | – | – |
| O=C(Nc1cccc(-c2cccc(N3CCCC3)n2)c1)N1CCc2ccccc2C1 [Compound 10y, N-(3-(6-(Pyrrolidin-1-yl)pyridin-2-yl)phenyl)-3,4-dihydroisoquinoline-2(1H)-carboxamide] | – | – | 50 | 5340 | 2.55 | – | – | – | > 10000 |
| O=C(Nc1cccc(-c2cccc(N3CCCC3)n2)c1)NC1CCCCC1 [Compound 10z, 1-Cyclohexyl-3-(3-(6-(pyrrolidin-1-yl)pyridin-2-yl)phenyl)urea] | – | – | 136 | 333 ± 30 | 78 | 659 | – | – | – |
| CN(C(=O)Nc1cccc(-c2cccc(N3CCCC3)n2)c1)c1ccc(Cl)cc1 [Compound 13a, 1-(4-Chlorophenyl)-1-methyl-3-(3-(6-(pyrrolidin-1-yl)pyridin-2-yl)phenyl)urea] | – | – | 99 | 1020 | 17 | 1640 | – | – | – |
